Experimental data: patent US20190119282A1, “IMIDAZOPYRIDAZINES USEFUL AS INHIBITORS OF THE PAR-2 SIGNALING PATHWAY” (Vertex Pharmaceuticals Incorporated, priority 2013, published 2019)
Marks after values point to notes of the source that are not given here.

How the values were obtained:
[1] = In vivo rat pharmacokinetics (intravenous and oral); conditions: plasma
Outline: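 Rats dosed by tail-vein bolus at 0.5–1 mg/kg in NMP-based solutions, or by oral gavage at 1–600 mg/kg as solution, suspension or spray-dried dispersion. Jugular blood in K3EDTA gave plasma or citrate-diluted whole blood; LC-MS/MS quantification, non-compartmental PK analysis.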

[2] = tested on: carrageenan-induced paw edema; test: Rat carrageenan-induced paw edema model; assay type: in vivo, Sprague Dawley rats; conditions: given 2 hours post carrageenan challenge
Protocol: (§1) Male Sprague Dawley rats and BALB/c mice were housed in groups in a temperature controlled room and were acclimatized in the animal facility for at least three days prior to use. Experiments were performed during the light phase of the cycle. Animals have food and water ad libitum.
Example 63: Rat Carrageenan-Induced Paw Edema Model
Peripheral inflammation was induced by intra-plantar administration of 100 ul of a 1% w/volume (in saline) carrageenan solution under isoflurane anesthesia. The degree of swelling was assessed using the plethysmometer at 2-3-4-5-6 h after carrageenan injection. Test compound or vehicle (0.5% MC/0.1% SDS) was systemically administered at the indicated doses in a volume of 5 mL/kg either I-3 hour before carrageenan challenge (Table 9) or 2 hours post carrageenan challenge (Table 10).
(§2) Data are expressed as the mean % effect. Statistical significance was assessed using t-test for comparison between naive and inflamed rats, and one-way ANOVA followed by post-hoc comparison test for overall drug effectiveness. A difference between groups is considered significant with a p value of <0.05. *, p<0.05; **, p<0.01; ***, p<0.001 vs. vehicle.

[3] = tested on: tryptase-induced mechanical hypersensitivity; test: Rat tryptase-induced mechanical hypersensitivity model; assay type: in vivo, Sprague Dawley rats; conditions: given 3-18 h before the tryptase challenge
Protocol: as §1
Example 64: Rat Tryptase-Induced Mechanical Hypersensitivity Model
Peripheral sensitization was induced by intra-dermal administration of 500 ng of tryptase in a volume of 10 ul PBS under isoflurane anesthesia. Rats were then placed on a wire mesh grid in separate compartments and allowed to acclimatize before testing. Mechanical hypersensitivity was assessed 30 min after tryptase injection using calibrated von Frey filaments applied perpendicular to the plantar surface of the affected paw using the up-and-down method. Test compounds or vehicle (0.5% MC/0.1% SDS) were systemically administered at doses indicated in a volume of 5 mL/kg 3-18 h before the tryptase challenge (Table 11) or 30 minutes post tryptase challenge (Table 12).
as §2

[4] = tested on: UTP-stimulated Ca2+ response in HT-29 cells; test: Ca FLIPR TETRA assay, ANTAGONIST mode, stimulation with 0.6 μM UTP; assay type: cell-based, human; conditions: Homo sapiens; HT-29 cells, antagonist mode, stimulation with 0.6 μM UTP
Outline: (§3)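 Antagonist-mode FLIPR Tetra Ca2+ readout: after 30 min r.t. compound pre-incubation, HT-29 cells are challenged with trypsin (3.1 U/mL final), SLIGKV (8 μM), thrombin (1 U/mL) or UTP (0.6 μM). Cells were plated overnight in 1% FBS medium and dye-loaded with Calcium 5; an initial read checks compound agonism.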

[5] = target: T1, PAR2 (HT-29 cells, SLIGKV activation) (Homo sapiens, UniProt P55085); test: Ca FLIPR TETRA assay, ANTAGONIST mode, stimulation with 8 μM SLIGKV; assay type: cell-based; conditions: HT-29 cells, antagonist mode, stimulation with 8 μM SLIGKV
T1 construct: host or cells: HT-29 cells
T1 sequence (P55085 26-397): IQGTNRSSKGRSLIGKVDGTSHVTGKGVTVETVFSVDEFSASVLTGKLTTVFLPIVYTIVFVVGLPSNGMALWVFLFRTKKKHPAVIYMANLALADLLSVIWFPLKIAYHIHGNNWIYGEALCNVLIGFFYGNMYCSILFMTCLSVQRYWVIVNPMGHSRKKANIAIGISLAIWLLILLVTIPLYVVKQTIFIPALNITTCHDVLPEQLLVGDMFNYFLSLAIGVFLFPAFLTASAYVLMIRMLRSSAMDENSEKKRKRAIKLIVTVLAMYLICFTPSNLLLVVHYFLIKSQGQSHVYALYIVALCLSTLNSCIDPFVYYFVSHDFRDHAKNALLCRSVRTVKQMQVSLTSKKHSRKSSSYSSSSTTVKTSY
Outline: as §3

[6] = tested on: TNBS-induced colitis; test: Mouse TNBS-induced colitis model; assay type: in vivo, BALB/c mice; conditions: mice
Protocol: as §1
Example 65: Mouse TNBS-Induced Colitis Model
Colitis was induced by intra-colonic administration of 1.5 mg of TNBS in 75 μl of 40% v/volume ethanol solution under isoflurane anesthesia at a depth of 4 cm from the anal verge. Mice were kept with their heads down for 30 additional seconds post administration to ensure distribution of TNBS. Disease activity scores were assessed for a period of 5 days starting prior to TNBS injection (baseline reading). […] Test compounds or vehicle (0.5% MC/0.1% SDS) were systemically administered at the indicated doses in a volume of 10 mL/kg each day for 5 days and starting 1 day before TNBS.
as §2

[7] = target: T2, PAR2 (HT-29 cells, trypsin activation) (Homo sapiens, UniProt P55085); test: Ca FLIPR TETRA assay, ANTAGONIST mode, stimulation with 3.1 U/mL trypsin; assay type: cell-based; conditions: HT-29 cells, antagonist mode, stimulation with 3.1 U/mL trypsin
T2 construct: host or cells: HT-29 cells
T2 sequence (P55085 26-397): T1 sequence (P55085 26-397)
Outline: as §3

[8] = tested on: Thrombin-stimulated Ca2+ response in HT-29 cells; test: Ca FLIPR TETRA assay, ANTAGONIST mode, stimulation with 1 U/mL Thrombin; assay type: cell-based, human; conditions: Homo sapiens; HT-29 cells, antagonist mode, stimulation with 1 U/mL Thrombin
Outline: as §3

CC(C)(C)c1cc(-c2ccc(F)cc2)nn2cc(C(=O)N3CCNC(=O)C3(C)C)nc12 [Compound I-191, 4-(8-(tert-butyl)-6-(4-fluorophenyl)imidazo[1,2-b]pyridazine-2-carbonyl)-3,3-dimethylpiperazin-2-one]
clearance ([1]; intravenous 0.5 to 1 mg/kg, read-out: Clp): 0.7 mL/min/kg | Vd ([1]; intravenous, read-out: Vss): 3.2 L/kg | bioavailability ([1]; oral by gavage): 66% | half-life ([1]; read-out: T ½ (converted)): 56.9 h | % inhibition of an established carrageenan induced rat paw edema ([2]; dose 0.6 mg/kg): 26% | % inhibition of an established carrageenan induced rat paw edema ([2]; dose 2 mg/kg): 40* % | % inhibition of an established carrageenan induced rat paw edema ([2]; dose 3 mg/kg): 46*** % | % inhibition of an established carrageenan induced rat paw edema ([2]; dose 6 mg/kg): 48* % | % inhibition of an established carrageenan induced rat paw edema ([2]; dose 10 mg/kg): 50*** % | % inhibition of an established carrageenan induced rat paw edema ([2]; dose 30 mg/kg): 57*** % | % inhibition of tryptase-induced nociception ([3]; dose 1 mg/kg): 26% | % inhibition of tryptase-induced nociception ([3]; dose 3 mg/kg): 36% | % inhibition of tryptase-induced nociception ([3]; dose 10 mg/kg): 40** % | IC50 [4]: 0.44 µM | IC50 [5]: 0.0014 µM | % improvement in Disease activity scores ([6]; dose 15 mg/kg each day for 5 days starting 1 day before TNBS): 21** % | % improvement in Disease activity scores ([6]; dose 50 mg/kg each day for 5 days starting 1 day before TNBS): 36*** % | IC50 [7]: 0.0023 µM | IC50 [8]: 0.32 µM
